Test results: patent US12280038B2, “L-pag derivatives for treatment of sleep disordered breathing (SDB)” (priority 2016, dated 2025)
Where two headings read alike, the source gives them in different places.

Key:
HO-2 null mice [1] = test: Breathing (apnea, hypoapnea) monitored by whole-body plethysmography in unsedated HO-2 null mice; type: in vivo; settings: for ED50: Mus musculus
Protocol: Experiments were approved by the Institutional Animal Care and Use Committee of the University of Chicago and were performed on age-matched C57/BL6 wild type and HO-2^−/− mice. At the end of the experiment, mice were euthanized by intra-cardiac injection (0.1 mL) of euthanasia solution (Beuthanasia-D Special, Schering-Plough).
Breathing was continuously monitored under room air from 10:00 AM to 4:00 PM by whole-body plethysmography (emka Technologies, Falls Church, VA) while ambient temperatures were maintained at 25±1° C. Breathing signals were collected and stored with a data acquisition system(emka Technologies, Falls Church, VA; or PowerLab 8/35, AD Instruments, Australia), and scored off-line with commercial software (RemLogic™, Natus). Apneas were scored when there was a complete pause of respiration for the duration of 3 or more breaths. Hypopneas were scored when there was a 30% reduction in tidal volume or signal amplitude, often with an abrupt return to hyperventilation breaths at the end of the event.

[2] = target: T1, cystathionine-γ-lyase (CSE) (Mus musculus, UniProt Q8VCN5); test: In vitro assay of H2S production in mouse liver homogenates (CSE); type: biochemical
T1 construct: H2S production in an in vitro assay using mouse liver homogenates; from tissue; host or cells: mouse liver homogenate
Protocol: (§1) FIGS. 10A-10B Effect of CSE inhibitor on H2S production. FIG. 10A depicts a dose-response of L-propargylglycine (L-PAG) on H2S production in an in vitro assay using mouse liver homogenates. FIG. 10B depicts the effect of L-PAG (30 μM) on H2S generation by CSE and CBS in mouse liver homogenates. Data are presented as mean±SEM from 4 independent experiments. **P<0.01; n.s., not significant.
(§2) The effect of pharmacological CSE blockade on restoration of stable breathing in HO-2 null mice was examined. L-propargylglycine (L-PAG) is an inhibitor of CSE. […] The inhibitory effects of L-PAG were selective to CSE because H2S synthesis by cystathionine-β-synthase was unaffected (FIG. 10 B).

cystathionine-β-synthase = target: T2, cystathionine-β-synthase (Mus musculus, UniProt Q91WT9); test: In vitro assay of H2S production in mouse liver homogenates (CBS); type: biochemical; settings: L-PAG 30 μM
T2 construct: H2S generation by CSE and CBS in mouse liver homogenates; from tissue; host or cells: mouse liver homogenate
T2 sequence (Q91WT9 1-561): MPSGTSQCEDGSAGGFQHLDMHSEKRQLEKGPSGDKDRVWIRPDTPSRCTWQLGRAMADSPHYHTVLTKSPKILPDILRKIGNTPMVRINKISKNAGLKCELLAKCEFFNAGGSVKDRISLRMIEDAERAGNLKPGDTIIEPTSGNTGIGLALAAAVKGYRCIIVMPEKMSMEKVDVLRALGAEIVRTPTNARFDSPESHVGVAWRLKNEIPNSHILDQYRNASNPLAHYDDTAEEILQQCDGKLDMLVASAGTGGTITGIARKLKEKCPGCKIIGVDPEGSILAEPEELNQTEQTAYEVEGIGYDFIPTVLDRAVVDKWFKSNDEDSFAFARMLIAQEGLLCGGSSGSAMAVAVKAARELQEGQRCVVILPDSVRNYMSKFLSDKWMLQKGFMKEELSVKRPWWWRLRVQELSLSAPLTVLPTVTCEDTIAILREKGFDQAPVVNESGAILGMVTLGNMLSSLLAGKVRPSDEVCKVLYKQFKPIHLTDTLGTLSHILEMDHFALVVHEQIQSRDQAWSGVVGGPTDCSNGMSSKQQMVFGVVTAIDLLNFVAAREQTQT
Protocol: as §1, §2

in vivo = test: in vivo
Protocol: Comparisons of L-PAG plasma levels with (a) dose-response parameters for L-PAG pharmacologic activity and (b) the kinetics of reversal of this pharmacologic activity, support the conclusion that a threshold plasma drug level of approximately 12 to 15 μg/ml is necessary to sustain anti-apnea action. This threshold plasma drug level is consistent with both (a) the minimal anti-apnea activity of the 10 mg/kg dose of L-PAG and (b) the kinetics of the reversal of anti-apnea activity with time seen at L-PAG doses of 30 mg/kg or higher.

carotid body = test: Ex vivo carotid body sensory nerve response to hypoxia; settings: 30 mg/kg, HO-2 null mice
Protocol: Sensory nerve activity was recorded from ex vivo carotid bodies harvested from anesthetized mice. Briefly, the carotid sinus nerve was treated with collagenase, and several nerve bundles were isolated. Action potentials from one of the nerve bundles were recorded using a suction electrode (˜20-μm-diameter tip). […] Action potentials of similar height, duration, and shape (“single” unit) were selected using Spike histogram software (LabChart 7 Pro) for analysis of the sensory nerve activity. To obtain a stable baseline sensory nerve activity, carotid bodies were first superfused for 1 hour with normoxia-equilibrated medium. Subsequently, baseline sensory nerve activity under normoxia was recorded for 5 min. Sensory nerve responses to hypoxia were monitored for 3 min. The PO2 in the medium was determined by a blood gas analyzer (ABL 5). Hypoxic response was measured as the difference between the sensory nerve activity under baseline and during hypoxia (Δimp/s).

HO-2 null mice [3] = settings: any of the doses tested
Protocol: HO-2 null mice were treated with increasing doses of L-PAG via the intraperitoneal route, and breathing was monitored continuously for 6 hours. […] The anti-apneic effects of L-PAG were further analyzed at 30 mg/kg.

T1 sequence (Q8VCN5 whole entry): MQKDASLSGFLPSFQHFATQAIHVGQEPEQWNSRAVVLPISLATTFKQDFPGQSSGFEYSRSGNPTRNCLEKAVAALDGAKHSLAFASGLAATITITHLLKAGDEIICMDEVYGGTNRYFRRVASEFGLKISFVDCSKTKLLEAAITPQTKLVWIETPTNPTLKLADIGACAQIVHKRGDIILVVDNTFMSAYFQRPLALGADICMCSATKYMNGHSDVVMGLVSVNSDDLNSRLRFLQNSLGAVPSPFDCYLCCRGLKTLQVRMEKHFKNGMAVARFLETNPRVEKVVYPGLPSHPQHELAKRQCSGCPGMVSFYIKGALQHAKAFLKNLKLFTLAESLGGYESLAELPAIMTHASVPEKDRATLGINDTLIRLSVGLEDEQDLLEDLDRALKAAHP

With `C#CC[C@H](N)C(=O)O` [L-PAG, L-propargylglycine] the “anti-apnea activity at 10 mg/kg dose” value (HO-2 null mice [1]; 10 mg/kg) was “minimal”, the hypoapnea index (HO-2 null mice [1]; 30 mg/kg intraperitoneal) was “reduced by L-PAG and this effect persisted even after 24 hours” and the “occurrence of both obstructive and central apnea” value (HO-2 null mice [1]; 30 mg/kg intraperitoneal) was “markedly reduced”. For the same compound, the “time after administration at which anti-apneic effects were seen” value (HO-2 null mice [1]; 30 mg/kg intraperitoneal) was ~2 h, the “time after which apnea returned to pre-injection values” (HO-2 null mice [1]; 30 mg/kg intraperitoneal) was 24 h and the ED50 (HO-2 null mice [1]; ip, intraperitoneal route, breathing monitored 6 hours, HO-2 null mice, read-out: ED50 for reducing number of apneas and restoring stable breathing) was 30 mg/kg. For the same compound, the ED50 (HO-2 null mice [1]; systemic administration, HO2-KO mice, FIG. 11, read-out: ED50 for inhibiting SDB (comparative dose-response)) was ~30 mg/kg, the “reduction of number of apneas and hypoapnea index after oral administration” value (HO-2 null mice [1]; oral 30 mg/kg, compared with intraperitoneal) was “equally effective” and the “CSE-derived H2S” value [2] was “inhibited”. For the same compound, the “H2S synthesis by cystathionine-β-synthase” value (cystathionine-β-synthase) was “unaffected”, the bioavailability (in vivo) was 100% and the “plasma clearance profiles, oral versus i.p.” value (in vivo) was “essentially identical”. For the same compound, the “threshold plasma drug level necessary to sustain anti-apnea action” value (in vivo; mouse) was 12 to 15 µg/mL, the “carotid body sensitivity to hypoxia” value (carotid body) was “markedly reduced” and the mortality (HO-2 null mice [3]) was “no mortality”.
